# In ChEMBL document CHEMBL2074141, “Comparison of lactate transport in astroglial cells and monocarboxylate transporter 1 (MCT 1) expressing Xenopus laevis oocytes. Expression of two different monocarboxylate transporters in astroglial cells and neurons” (J Biol Chem, 1997):
# Key:
# Assay type in all cases: functional, cell-based
# Set-up in all cases: scale not given: the % may be the effect or the level left
# Conditions in all cases: Oocyte
# [1] = biological target: Monocarboxylate transporter 1 (Rattus norvegicus) (UniProt P53987); assay: TP_TRANSPORTER: inhibition of lactate uptake (Lactate:0.1mM, pCMBS:1mM, preincubation with aminoxyacetate) in Xenopus laevis oocytes
# [2] = biological target: T1, Monocarboxylate transporter 1 (Rattus norvegicus) (UniProt P53987); assay: TP_TRANSPORTER: inhibition of lactate uptake (Lactate:0.1mM, 4-CIN:5mM, preincubation with aminoxyacetate) in Xenopus laevis oocytes
# T1 sequence (whole entry): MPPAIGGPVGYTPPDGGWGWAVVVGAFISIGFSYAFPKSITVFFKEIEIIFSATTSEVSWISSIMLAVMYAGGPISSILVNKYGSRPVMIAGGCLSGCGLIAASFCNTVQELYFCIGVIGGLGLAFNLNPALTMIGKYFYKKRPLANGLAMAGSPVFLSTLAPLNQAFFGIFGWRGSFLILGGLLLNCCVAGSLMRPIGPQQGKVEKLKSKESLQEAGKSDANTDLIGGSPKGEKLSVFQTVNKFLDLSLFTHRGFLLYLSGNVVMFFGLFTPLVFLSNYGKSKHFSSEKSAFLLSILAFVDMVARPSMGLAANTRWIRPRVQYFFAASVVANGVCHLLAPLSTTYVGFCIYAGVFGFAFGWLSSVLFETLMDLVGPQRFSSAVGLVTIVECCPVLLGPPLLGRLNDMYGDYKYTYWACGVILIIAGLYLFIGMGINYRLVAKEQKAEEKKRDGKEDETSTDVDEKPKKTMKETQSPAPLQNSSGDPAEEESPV
# [3] = biological target: T1, Monocarboxylate transporter 1 (Rattus norvegicus); assay: TP_TRANSPORTER: inhibition of lactate uptake (Lactate:0.1mM, D,L-3-Hydroxybutyrate:50mM, preincubation with aminoxyacetate) in Xenopus laevis oocytes
# [4] = biological target: T1, Monocarboxylate transporter 1 (Rattus norvegicus); assay: TP_TRANSPORTER: inhibition of lactate uptake (Lactate:0.1mM, Acetoacetate:50mM, preincubation with aminoxyacetate) in Xenopus laevis oocytes
# [5] = biological target: T1, Monocarboxylate transporter 1 (Rattus norvegicus); assay: TP_TRANSPORTER: inhibition of lactate uptake (Lactate:0.1mM, Pyruvate:1mM, preincubation with aminoxyacetate) in Xenopus laevis oocytes
# [6] = biological target: T1, Monocarboxylate transporter 1 (Rattus norvegicus); assay: TP_TRANSPORTER: inhibition of lactate uptake (Lactate:0.1mM, alpha-Ketoisocaproate:5mM, preincubation with aminoxyacetate) in Xenopus laevis oocytes
compound,measurement,setting,value
p-Chloromercuribenzenesulfonate,Activity,[1],18%
N#C/C(=C\c1ccc(O)cc1)C(=O)O,Activity,[2],9%
CC(O)CC(=O)O (racemic),Activity,[3],7%
CC(=O)CC(=O)O,Activity,[4],13%
CC(=O)C(=O)O,Activity,[5],23%
CC(C)CC(=O)C(=O)O,Activity,[6],13%
